Measurements as given in patent US12599596B2, “Anti-tumor pharmaceutical composition based on immune checkpoint blockade and use thereof” (Shanghai Hui Tian Jin Ze Biotech Co., Ltd., priority 2023, dated 2026).

How the values were obtained:
[1] = test system: PD-L1 in A549 lung cancer cells; assay: PD-L1 expression by Western blotting; assay type: cell-based; conditions: concentration-dependent at 5, 10, 20 μM, 24 h
Method: (§1) Different types of well-grown tumor cells (RKO colorectal cancer cells, H1975 lung cancer cells, and A549 lung cancer cells) with a density of 80% or more were respectively spread on a 6-well plate at a density of 5×10^4 cells/well, the volume of the suspension in each well was 2 mL, and the cells were subsequently placed in an incubator at 37° C. for culture. […] After the cells were continuously cultured for 24 h, the culture was terminated, and subsequent detection was conducted.
(§2) After the culture was terminated, the cells were collected and washed with cold PBS 2 times. After the PBS residue was removed, a proper amount of cell lysate was added for cracking, and the cells were incubated on ice for 15 min and then centrifuged on a 4° C. centrifuge at 12,000 rpm for 15 min. The supernatant was carefully aspirated, the protein concentration was measured via the BCA method, a corresponding amount of loading buffer was added, the cells were evenly shaken and incubated in a 100° C. water bath for 10 min, and finally, the sample was subjected to a protein immunoblotting experiment.

[2] = test system: PD-L1 in H1975 lung cancer cells; assay: PD-L1 expression by Western blotting; assay type: cell-based; conditions: concentration-dependent at 5, 10, 20 μM, 24 h
Method: as §1, §2

[3] = test system: PD-L1 in RKO colorectal cancer cells; assay: PD-L1 expression by Western blotting; assay type: cell-based; conditions: concentration-dependent at 5, 10, 20 μM, 24 h
Method: as §1, §2

[4] = test system: RKO cells; assay: In vitro killing of tumor cells by T cells (NK-92) with CBD, crystal violet; assay type: cell-based; conditions: CBD 5, 10, 20 μM 12 h, then NK-92 cells 1:500, 24 h; vs control
Method: RKO cells in the logarithmic growth phase were inoculated into a 12-well plate at a density of 5×10^4 cells/mL and placed in a 5% CO2 incubator for growth adhering to a wall overnight. The supernatant was removed, CBD at different concentrations (0 μM, 5 μM, 10 μM, and 20 μM) was added, and the cells were coincubated for 12 h. NK-92 cells (T cells) were added at 1:500, the cells were cultured for 24 h, and a control group without the NK-92 cells was set at the same time. The supernatant was removed, PBS was used for washing 2 times, and 4% paraformaldehyde was added to fix the cells. Then, PBS was used for washing 2 times, crystal violet was added for dyeing for 30 min, and finally, redundant crystal violet was washed away with PBS, and photographing was performed to collect the data.

[5] = test system: MC38 colorectal cancer cells; assay: MC38 subcutaneous tumor model in C57BL/6 mice, Embodiment 2; assay type: in vivo; conditions: for Tumor volume: CBD 100 mg/kg, PAR 10 mg/kg, vitamin E 50 mg/kg, thymosin 2 mg/kg
Method: • 1. MC38 colorectal cancer cells were inoculated into 6-week-old female C57BL/6 mice (1×10^6 cells/mouse) to establish a subcutaneous tumor model. After the tumor volume reached 50 mm^3, the mice were grouped and administered according to the following pharmaceutical combinations: (1) control group (no administration), (2) anti-PD-1 ([…]/time) group, (3) anti-CTLA4 ([…]/time) group, (4) CBD (100 mg/kg) group, (5) CBD (100 mg/kg)+anti-CTLA4 ([…]/time) group, (6) PAR (10 mg/kg) group, (7) PAR (10 mg/kg)+anti-CTLA4 ([…]) group, (8) CBD (100 mg/kg)+PAR (10 mg/kg) group, (9) vitamin E(a-tocopherol) (50 mg/kg)+thymosin (2 mg/kg) group, (10) CBD (100 mg/kg)+vitamin E(α-tocopherol) (50 mg/kg)+thymosin (2 mg/kg) group, (11) PAR (10 mg/kg)+vitamin E(α-tocopherol) (50 mg/kg)+thymosin (2 mg/kg), (12) PAR (10 mg/kg)+CBD (100 mg/kg)+vitamin E(α-tocopherol) (50 mg/kg)+thymosin (2 mg/kg) group, (13) CBD (100 mg/kg)+vitamin E(α-tocopherol) (50 mg/kg)+thymosin (2 mg/kg)+anti-CTLA4 ([…]/time) group, (14) PAR (10 mg/kg)+vitamin E(α-tocopherol) (50 mg/kg)+thymosin (2 mg/kg)+anti-CTLA4 ([…]) group, and (15) CBD (100 mg/kg)+PAR (10 mg/kg)+vitamin E(α-tocopherol) (50 mg/kg)+thymosin (2 mg/kg)+anti-CTLA4 ([…]/time) group. The tumor weight and volume, and body weight of the mice were monitored once every 2 days. The tumor volume was calculated as follows: tumor volume (mm^3)=0.5×(length)x(width)^2. The mice were sacrificed 14 days after drug administration, and the tumors were dissected.
The dissolving mode of the pharmaceutical composition was as follows: the pharmaceutical composition was dissolved in 10% DMSO+corn oil, the mice were gavaged with the pharmaceutical composition at 100 pl/mouse, and the mice in the control group were injected with the same volume of the solvent. • 2. MC38 colorectal cancer cells were inoculated into 6-week-old female nude mice (1×10^6 cells/mouse) to establish a subcutaneous tumor model. After the tumor volume reached 50 mm^3, the mice were grouped and administered according to the following pharmaceutical combinations: (1) control group, (2) CBD (100 mg/kg)+vitamin E(α-tocopherol) (50 mg/kg)+thymosin (2 mg/kg) group, (3) PAR (10 mg/kg)+vitamin E(α-tocopherol) (50 mg/kg)+thymosin (2 mg/kg) group, and (4) PAR (10 mg/kg)+CBD (100 mg/kg)+vitamin E(α-tocopherol) (50 mg/kg)+thymosin (2 mg/kg) group. The tumor weight and volume, and the body weight of the mice were monitored once every 2 days. The tumor volume was calculated as follows: tumor volume (mm^3)=0.5×(length)x(width)^2. The mice were sacrificed 14 days after drug administration, and the tumors were dissected. (II) Experimental Results 1.

C=C(C)[C@@H]1CCC(C)=C[C@H]1c1c(O)cc(CCCCC)cc1O [CBD, cannabidiol]
expression of PD-L1 (Western blotting) [1]: significantly inhibited the expression of PD-L1 | expression of PD-L1 (Western blotting) [2]: significantly inhibited the expression of PD-L1 | expression of PD-L1 (Western blotting) [3]: significantly inhibited the expression of PD-L1 | viability of RKO cells in CBD+T cells coculture [4]: significantly reduced the viability of RKO cells | Tumor volume ([5]; Day 0): 0 mm^3 | Tumor volume ([5]; Day 2): 54.99 mm^3 | Tumor volume ([5]; Day 4): 70.96 mm^3 | Tumor volume ([5]; Day 6): 87.63 mm^3 | Tumor volume ([5]; Day 8): 178.79 mm^3 | Tumor volume ([5]; Day 10): 279.84 mm^3 | Tumor volume ([5]; Day 12): 399.70 mm^3 | Tumor volume ([5]; Day 14): 493.09 mm^3 | Tumor volume ([5]; Day 16): 600.09 mm^3 | therapeutic / tumor inhibition effect in words ([5]; normal mice, Embodiment 2, comparison between groups): equivalent therapeutic effects
